Patent US11987588B2, “Modulators of the beta-3 adrenergic receptor useful for the treatment or prevention of heart failure and disorders related thereto” (Arena Pharmaceuticals, Inc., priority 2017, dated 2024)

Target: Beta-3 Adrenergic Receptor (Homo sapiens (Human), UniProt P13945)
Test: Homogeneous Time-Resolved Fluorescence (HTRF) cAMP antagonist assay, IC50 determination
Assay type: cell-based
Conditions: CHO-K1 cells stably expressing recombinant receptor, isoproterenol at EC90
Summary of the method: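 CHO-K1 cells stably expressing the recombinant receptor were preincubated with compound (10-point, 5-fold dilutions; top final typically 10 or 100 μM) in PBS with 1 mM IBMX, then stimulated with isoproterenol at its EC90 for 1 h at room temperature. cAMP was read by HTRF against an on-plate standard curve.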

Beta-3 Adrenergic Receptor, sequence (P13945 whole entry, species assumed): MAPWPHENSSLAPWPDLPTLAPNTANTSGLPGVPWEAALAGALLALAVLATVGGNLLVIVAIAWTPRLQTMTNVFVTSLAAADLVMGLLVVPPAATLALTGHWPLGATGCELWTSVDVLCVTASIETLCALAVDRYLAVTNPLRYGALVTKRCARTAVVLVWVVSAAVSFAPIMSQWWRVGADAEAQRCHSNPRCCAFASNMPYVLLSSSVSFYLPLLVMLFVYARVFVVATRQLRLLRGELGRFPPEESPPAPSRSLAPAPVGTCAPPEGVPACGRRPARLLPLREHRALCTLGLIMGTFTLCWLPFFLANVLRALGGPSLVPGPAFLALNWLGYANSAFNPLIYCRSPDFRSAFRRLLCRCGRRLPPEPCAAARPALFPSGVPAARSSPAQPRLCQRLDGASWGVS

IC50 [nM]	SMILES
11.8	CNS(=O)(=O)c1cccc(OC[C@@H](O)CN[C@@H]2COC3(CCN(S(=O)(=O)c4ccc5c(c4)N(C)CCO5)CC3)C2)c1 [Compound 299, 3-((S)-2-hydroxy-3-((S)-8-(4-methyl-3,4-dihydro-2H-benzo[b][1,4]oxazin-6-ylsulfonyl)-1-oxa-8-azaspiro[4.5]decan-3-ylamino)propoxy)-N-methylbenzenesulfonamide]
39.1	CNS(=O)(=O)c1cccc(OC[C@@H](O)CNC2COC3(CCN(S(=O)(=O)c4ccc(-c5ccncc5)cc4)CC3)C2)c1 (stereo partly drawn) [Compound 408, 3-((2S)-2-hydroxy-3-(8-(4-(pyridin-4-yl)phenylsulfonyl)-1-oxa-8-azaspiro[4.5]decan-3-ylamino)propoxy)-N-methylbenzenesulfonamide]
44.2	CNS(=O)(=O)c1cccc(OC[C@@H](O)CN[C@H]2COC3(CCN(S(=O)(=O)c4cnc5c(c4)N(C)CC4(CC4)O5)CC3)C2)c1 [Compound 474, 3-((S)-2-hydroxy-3-((R)-8-(1′-methyl-1′,2′-dihydrospiro[cyclopropane-1,3′-pyrido[2,3-b][1,4]oxazine]-7′-ylsulfonyl)-1-oxa-8-azaspiro[4.5]decan-3-ylamino)propoxy)-N-methylbenzenesulfonamide]
39.3	CNS(=O)(=O)c1cccc(OC[C@@H](O)CNC2COC3(CCN(S(=O)(=O)c4ccc(C)c(Br)c4)CC3)C2)c1 (stereo partly drawn) [Compound 218, 3-((2S)-3-(8-(3-bromo-4-methylphenylsulfonyl)-1-oxa-8-azaspiro[4.5]decan-3-ylamino)-2-hydroxypropoxy)-N-methylbenzenesulfonamide]
21.6	CCn1cc(S(=O)(=O)N2CCC3(CC2)C[C@@H](NC[C@H](O)COc2cccc(S(=O)(=O)NC)c2)CO3)c(=O)c2cccc(F)c21 [Compound 525, 3-((S)-3-((R)-8-(1-ethyl-8-fluoro-4-oxo-1,4-dihydroquinolin-3-ylsulfonyl)-1-oxa-8-azaspiro[4.5]decan-3-ylamino)-2-hydroxypropoxy)-N-methylbenzenesulfonamide]
53	CCn1cc(S(=O)(=O)N2CCC3(CC2)C[C@@H](NC[C@H](O)COc2cccc(S(=O)(=O)NC)c2)CO3)c(=O)c2ccc(F)cc21 [Compound 546, 3-((S)-3-((R)-8-(1-ethyl-7-fluoro-4-oxo-1,4-dihydroquinolin-3-ylsulfonyl)-1-oxa-8-azaspiro[4.5]decan-3-ylamino)-2-hydroxypropoxy)-N-methylbenzenesulfonamide]
38.6	CN(C)S(=O)(=O)c1cccc(OC[C@@H](O)CNC2COC3(CCN(S(=O)(=O)c4cccc(Cl)c4)CC3)C2)c1 (stereo partly drawn) [Compound 246, 3-((2S)-3-(8-(3-chlorophenylsulfonyl)-1-oxa-8-azaspiro[4.5]decan-3-ylamino)-2-hydroxypropoxy)-N,N-dimethylbenzenesulfonamide]
278	CNS(=O)(=O)c1cccc(OC[C@@H](O)CN[C@H]2COC3(CCN(S(=O)(=O)c4cnc5c(c4)CNCC5)CC3)C2)c1 [Compound 484, 3-((S)-2-hydroxy-3-((R)-8-(5,6,7,8-tetrahydro-1,6-naphthyridin-3-ylsulfonyl)-1-oxa-8-azaspiro[4.5]decan-3-ylamino)propoxy)-N-methylbenzenesulfonamide]
30.7	CNS(=O)(=O)c1cccc(OC[C@@H](O)CNC2COC3(CCN(S(=O)(=O)c4ccccc4C#N)CC3)C2)c1 (stereo partly drawn) [Compound 39, 3-((2S)-3-(8-(2-cyanophenylsulfonyl)-1-oxa-8-azaspiro[4.5]decan-3-ylamino)-2-hydroxypropoxy)-N-methylbenzenesulfonamide]
202	CNS(=O)(=O)c1cccc(OC[C@@H](O)CN[C@H]2COC3(CCN(c4cnc(C(F)(F)F)cn4)CC3)C2)c1 [Compound 585, 3-((S)-2-hydroxy-3-((R)-8-(5-(trifluoromethyl)pyrazin-2-yl)-1-oxa-8-azaspiro[4.5]decan-3-ylamino)propoxy)-N-methylbenzenesulfonamide]
31.2	CNS(=O)(=O)c1cccc(OC[C@@H](O)CNC2COC3(CCN(S(=O)(=O)c4cccc(-c5cccc(CN(C)C)c5)c4)CC3)C2)c1 (stereo partly drawn) [Compound 105, 3-((2S)-3-(8-(3′-((dimethylamino)methyl)biphenyl-3-ylsulfonyl)-1-oxa-8-azaspiro[4.5]decan-3-ylamino)-2-hydroxypropoxy)-N-methylbenzenesulfonamide]
19.3	CNS(=O)(=O)c1cccc(OC[C@@H](O)CNC2COC3(CCN(S(=O)(=O)c4cccc(-c5cc[nH]c5)c4)CC3)C2)c1 (stereo partly drawn) [Compound 63, 3-((2S)-3-(8-(3-(1H-pyrrol-3-yl)phenylsulfonyl)-1-oxa-8-azaspiro[4.5]decan-3-ylamino)-2-hydroxypropoxy)-N-methylbenzenesulfonamide]
26.3	CNS(=O)(=O)c1cccc(OC[C@@H](O)CNC2COC3(CCN(S(=O)(=O)c4cccc(-c5ccc(CNCCC(C)C)cc5)c4)CC3)C2)c1 (stereo partly drawn) [Compound 320, 3-((2S)-2-hydroxy-3-(8-(4′-((isopentylamino)methyl)biphenyl-3-ylsulfonyl)-1-oxa-8-azaspiro[4.5]decan-3-ylamino)propoxy)-N-methylbenzenesulfonamide]
285	CCN(C(C)C)S(=O)(=O)c1cccc(OC[C@@H](O)CNC2COC3(CCN(S(=O)(=O)c4ccc5ccccc5c4)CC3)C2)c1 (stereo partly drawn) [Compound 7, N-ethyl-3-((2S)-2-hydroxy-3-(8-(naphthalen-2-ylsulfonyl)-1-oxa-8-azaspiro[4.5]decan-3-ylamino)propoxy)-N-isopropylbenzenesulfonamide]
14.3	CCCn1cc(-c2cccc(S(=O)(=O)N3CCC4(CC3)CC(NC[C@H](O)COc3cccc(S(=O)(=O)NC)c3)CO4)c2)cn1 (stereo partly drawn) [Compound 80, 3-((2S)-2-hydroxy-3-(8-(3-(1-propyl-1H-pyrazol-4-yl)phenylsulfonyl)-1-oxa-8-azaspiro[4.5]decan-3-ylamino)propoxy)-N-methylbenzenesulfonamide]
126	CNS(=O)(=O)c1cccc(OC[C@@H](O)CNC2COC3(CCN(S(=O)(=O)c4cccc(-c5ccc(CN6CCSC6)cc5)c4)CC3)C2)c1 (stereo partly drawn) [Compound 346, 3-((2S)-2-hydroxy-3-(8-(4′-(thiazolidin-3-ylmethyl)biphenyl-3-ylsulfonyl)-1-oxa-8-azaspiro[4.5]decan-3-ylamino)propoxy)-N-methylbenzenesulfonamide]
32.7	CNS(=O)(=O)c1cccc(OC[C@@H](O)CN[C@H]2COC3(CCN(S(=O)(=O)c4cn(CC(=O)O)c5ccccc5c4=O)CC3)C2)c1 [Compound 544, 2-(3-((R)-3-((S)-2-hydroxy-3-(3-(N-methylsulfamoyl)phenoxy)propylamino)-1-oxa-8-azaspiro[4.5]decan-8-ylsulfonyl)-4-oxoquinolin-1(4H)-yl)acetic acid]
37	CN(C)S(=O)(=O)c1cccc(OC[C@@H](O)CNC2COC3(CCN(S(=O)(=O)c4ccc(Cl)c5nonc45)CC3)C2)c1 (stereo partly drawn) [Compound 257, 3-((2S)-3-(8-(7-chlorobenzo[c][1,2,5]oxadiazol-4-ylsulfonyl)-1-oxa-8-azaspiro[4.5]decan-3-ylamino)-2-hydroxypropoxy)-N,N-dimethylbenzenesulfonamide]
24.7	CNS(=O)(=O)c1cccc(OC[C@@H](O)CN[C@@H]2COC3(CCN(S(=O)(=O)c4ccc(OC)c(C)c4)CC3)C2)c1 [Compound 266, 3-((S)-2-hydroxy-3-((S)-8-(4-methoxy-3-methylphenylsulfonyl)-1-oxa-8-azaspiro[4.5]decan-3-ylamino)propoxy)-N-methylbenzenesulfonamide]
